In PubChem BioAssay AID248 (DTP/NCI, 2004):
Values joined by “and” are separate entries in the source; they are usually repeats but may differ in a detail not shown here. Identical values can stand only once. Toxic doses and inconclusive results are not listed. Rule as the data show it: active = T/C of 150% or more; inactive = T/C below 125%.

System: L1210 leukemia ip in BDF1 mice, survival T/C
Assay: NCI In Vivo Anticancer Drug Screen. Data for tumor model L1210 Leukemia (intraperitoneal) in B6D2F1 (BDF1) mice
Settings: endpoint: mean survival time, higher = longer survival
Procedure, shortened: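 Value reflects the ratio of survival in compound-treated mice to survival in vehicle-treated controls, with both groups carrying the same transplanted tumor.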

[1] = dose: 100.0 mg/kg/injection, schedule: Q01DX001 (ip), vehicle: carboxymethylcellulose (CMC)
[2] = dose: 200.0 mg/kg/injection, schedule: Q01DX001 (ip), vehicle: carboxymethylcellulose (CMC)
[3] = dose: 75.0 mg/kg/injection, schedule: Q01DX001 (ip), vehicle: saline
[4] = dose: 100.0 mg/kg/injection, schedule: Q01DX009 (ip), vehicle: Klucel (hydroxypropylcellulose) (HPC)
[5] = dose: 200.0 mg/kg/injection, schedule: Q01DX009 (ip), vehicle: Klucel (hydroxypropylcellulose) (HPC)
[6] = dose: 400.0 mg/kg/injection, schedule: Q01DX009 (ip), vehicle: Klucel (hydroxypropylcellulose) (HPC)
[7] = dose: 25.0 mg/kg/injection, schedule: Q01DX009 (ip), vehicle: Klucel (hydroxypropylcellulose) (HPC)
[8] = dose: 25.0 mg/kg/injection, schedule: Q04DX002 (ip), vehicle: Klucel (hydroxypropylcellulose) (HPC)
[9] = dose: 50.0 mg/kg/injection, schedule: Q01DX009 (ip), vehicle: Klucel (hydroxypropylcellulose) (HPC)
[10] = dose: 50.0 mg/kg/injection, schedule: Q04DX002 (ip), vehicle: Klucel (hydroxypropylcellulose) (HPC)
[11] = dose: 100.0 mg/kg/injection, schedule: Q04DX002 (ip), vehicle: Klucel (hydroxypropylcellulose) (HPC)
[12] = dose: 100.0 mg/kg/injection, schedule: Q04DX003 (ip), vehicle: Klucel (hydroxypropylcellulose) (HPC)
[13] = dose: 200.0 mg/kg/injection, schedule: Q04DX003 (ip), vehicle: Klucel (hydroxypropylcellulose) (HPC)

Measured: T/C

CCCCCCCC(=O)NCCCCC
inactive: dose: 50.0 mg/kg/injection, schedule: Q01DX001 (ip), vehicle: carboxymethylcellulose (CMC) 98 % of control | dose: 50.0 mg/kg/injection, schedule: Q01DX009 (ip), vehicle: carboxymethylcellulose (CMC) 97 % of control and 113 % of control | dose: 50.0 mg/kg/injection, schedule: Q04DX003 (ip), vehicle: carboxymethylcellulose (CMC) 103 % of control | [1] 105 % of control | dose: 100.0 mg/kg/injection, schedule: Q01DX009 (ip), vehicle: carboxymethylcellulose (CMC) 108 % of control | dose: 100.0 mg/kg/injection, schedule: Q04DX002 (ip), vehicle: carboxymethylcellulose (CMC) 94 % of control | dose: 100.0 mg/kg/injection, schedule: Q04DX003 (ip), vehicle: carboxymethylcellulose (CMC) 96 % of control | [2] 100 % of control | dose: 200.0 mg/kg/injection, schedule: Q01DX009 (ip), vehicle: carboxymethylcellulose (CMC) 104 % of control and 90 % of control | dose: 200.0 mg/kg/injection, schedule: Q04DX002 (ip), vehicle: carboxymethylcellulose (CMC) 96 % of control | dose: 200.0 mg/kg/injection, schedule: Q04DX003 (ip), vehicle: carboxymethylcellulose (CMC) 98 % of control | dose: 400.0 mg/kg/injection, schedule: Q04DX002 (ip), vehicle: carboxymethylcellulose (CMC) 96 % of control

COC(=O)NC(CI)c1ccccc1 (centres undefined)
inactive: [3] 110 % of control | dose: 150.0 mg/kg/injection, schedule: Q01DX001 (ip), vehicle: saline 110 % of control | dose: 300.0 mg/kg/injection, schedule: Q01DX001 (ip), vehicle: saline 100 % of control

NN(C(=O)c1ccc([N+](=O)[O-])cc1)C1CCCCC1
inactive: dose: 100.0 mg/kg/injection, schedule: Q04DX003 (ip), vehicle: acetone 96 % of control | dose: 200.0 mg/kg/injection, schedule: Q04DX003 (ip), vehicle: acetone 106 % of control | dose: 400.0 mg/kg/injection, schedule: Q04DX003 (ip), vehicle: acetone 93 % of control

O=C(O)/C(=C\c1ccccc1)c1cccc2ccccc12
inactive: [4] 100 % of control | [5] 98 % of control

Clc1ccc(C=Nc2cccc3ccccc23)c(Cl)c1
inactive: [4] 90 % of control | [5] 98 % of control | [6] 93 % of control

CCS(=O)(=O)OCCCl
inactive: [7] 94 % of control | [8] 97 % of control | [9] 93 % of control | [10] 94 % of control | [1] 112 % of control | [11] 102 % of control and 90 % of control | [2] 116 % of control

CC1(C)CCC2=C(O1)C(=O)c1ccccc1C2=O
inactive: dose: 100.0 mg/kg/injection, schedule: Q01DX001 (ip), vehicle: saline with Tween-80 102 % of control | dose: 200.0 mg/kg/injection, schedule: Q01DX001 (ip), vehicle: saline with Tween-80 104 % of control | dose: 400.0 mg/kg/injection, schedule: Q01DX001 (ip), vehicle: saline with Tween-80 94 % of control

O=C(O)C(Cc1ccc(O)cc1)N(S(=O)(=O)Cc1ccccc1)S(=O)(=O)Cc1ccccc1 (centres undefined)
inactive: dose: 100.0 mg/kg/injection, schedule: Q01DX001 (ip), vehicle: other 88 % of control | dose: 100.0 mg/kg/injection, schedule: Q04DX003 (ip), vehicle: other 95 % of control | dose: 200.0 mg/kg/injection, schedule: Q01DX001 (ip), vehicle: other 97 % of control | dose: 200.0 mg/kg/injection, schedule: Q04DX003 (ip), vehicle: other 98 % of control | dose: 400.0 mg/kg/injection, schedule: Q01DX001 (ip), vehicle: other 108 % of control | dose: 400.0 mg/kg/injection, schedule: Q04DX003 (ip), vehicle: other 88 % of control

O=C(CBr)c1ccc2c3c(cccc13)C=C2
inactive: [3] 98 % of control

CC(/C=N/N=C(N(C)C)N(C)C)=N/N=C(N(C)C)N(C)C
inactive: dose: 15.0 mg/kg/injection, schedule: Q01DX Z (ip), vehicle: methylcellulose (MC) 94 % of control | dose: 30.0 mg/kg/injection, schedule: Q01DX Z (ip), vehicle: methylcellulose (MC) 97 % of control | dose: 30.0 mg/kg/injection, schedule: Q01DX Z (oral), vehicle: methylcellulose (MC) 102 % of control | dose: 60.0 mg/kg/injection, schedule: Q01DX Z (ip), vehicle: methylcellulose (MC) 97 % of control | dose: 60.0 mg/kg/injection, schedule: Q01DX Z (oral), vehicle: methylcellulose (MC) 95 % of control | dose: 120.0 mg/kg/injection, schedule: Q01DX Z (ip), vehicle: methylcellulose (MC) 101 % of control

O=c1[nH]cc(F)c(=O)[nH]1.[Tl]
inactive: dose: 3.12 mg/kg/injection, schedule: Q04DX003 (ip), vehicle: water 108 % of control | dose: 6.25 mg/kg/injection, schedule: Q04DX003 (ip), vehicle: water 107 % of control | dose: 12.5 mg/kg/injection, schedule: Q01DX009 (ip), vehicle: Klucel (hydroxypropylcellulose) (HPC) 102 % of control | dose: 12.5 mg/kg/injection, schedule: Q04DX003 (ip), vehicle: water 118 % of control

Cc1cc(C)c([S-])c(C)c1.[Cu+]
inactive: dose: 18.8 mg/kg/injection, schedule: Q01DX001 (ip), vehicle: saline 98 % of control

COc1ccc(C(=O)c2cccs2)cc1
inactive: dose: 50.0 mg/kg/injection, schedule: Q01DX009 (ip), vehicle: saline sonified 101 % of control | dose: 100.0 mg/kg/injection, schedule: Q01DX009 (ip), vehicle: saline sonified 104 % of control | [12] 97 % of control | dose: 200.0 mg/kg/injection, schedule: Q01DX009 (ip), vehicle: saline sonified 102 % of control | [13] 94 % of control

O=C(NNCc1ccccc1)C(O)C(O)C(O)CO (centres undefined)
inactive: [7] 93 % of control | [9] 96 % of control | [4] 104 % of control | [5] 94 % of control | [6] 103 % of control

O=C(NCCCN1CC1)C(=O)Nc1ccccn1
inactive: [12] 102 % of control | [13] 86 % of control

CCc1ccccc1NC(=O)Nc1nccs1
inactive: [4] 116 % of control | [5] 110 % of control

COc1cc(NC(=O)Nc2cccc(Cl)c2)c(OC)cc1Cl
inactive: dose: 25.0 mg/kg/injection, schedule: Q04DX002 (ip), vehicle: saline with Tween-80 99 % of control | dose: 50.0 mg/kg/injection, schedule: Q04DX002 (ip), vehicle: saline with Tween-80 99 % of control | dose: 100.0 mg/kg/injection, schedule: Q04DX002 (ip), vehicle: saline with Tween-80 96 % of control

Clc1ccc(SCNCc2ccccc2)cc1
inactive: dose: 100.0 mg/kg/injection, schedule: Q01DX001 (ip), vehicle: saline 100 % of control | dose: 200.0 mg/kg/injection, schedule: Q01DX001 (ip), vehicle: saline 94 % of control | dose: 400.0 mg/kg/injection, schedule: Q01DX001 (ip), vehicle: saline 96 % of control

CN(C)C(=S)SCc1c(O)c(C(C)(C)C)cc2cc(C(C)(C)C)ccc12
inactive: [11] 105 % of control | dose: 200.0 mg/kg/injection, schedule: Q04DX002 (ip), vehicle: Klucel (hydroxypropylcellulose) (HPC) 110 % of control | dose: 400.0 mg/kg/injection, schedule: Q04DX002 (ip), vehicle: Klucel (hydroxypropylcellulose) (HPC) 102 % of control

COC(=O)NC1CCC(NC(=O)OC)CC1 (centres undefined)
inactive: dose: 100.0 mg/kg/injection, schedule: Q01DX001 (ip), vehicle: Klucel (hydroxypropylcellulose) (HPC) 96 % of control | dose: 200.0 mg/kg/injection, schedule: Q01DX001 (ip), vehicle: Klucel (hydroxypropylcellulose) (HPC) 93 % of control | dose: 400.0 mg/kg/injection, schedule: Q01DX001 (ip), vehicle: Klucel (hydroxypropylcellulose) (HPC) 91 % of control

O=c1[nH]c(Nc2ccccc2)c(-c2ccccc2)c(=O)[nH]1
inactive: dose: 47.5 mg/kg/injection, schedule: Q01DX001 (ip), vehicle: gum acacia 98 % of control | dose: 95.0 mg/kg/injection, schedule: Q01DX001 (ip), vehicle: gum acacia 88 % of control | dose: 190.0 mg/kg/injection, schedule: Q01DX001 (ip), vehicle: gum acacia 114 % of control

O=[N+]([O-])c1cc(Br)cc2c1nc(NCCO)c1ccccc12
inactive: [12] 103 % of control | [13] 119 % of control | dose: 400.0 mg/kg/injection, schedule: Q04DX003 (ip), vehicle: Klucel (hydroxypropylcellulose) (HPC) 101 % of control

Cc1[nH]c(N)nc(=S)c1CCCOc1ccc([N+](=O)[O-])cc1
inactive: [9] 112 % of control | [4] 96 % of control | [5] 102 % of control

CCN=C(N)CSS(=O)(=O)O
inactive: [8] 100 % of control | [10] 97 % of control | [11] 95 % of control and 110 % of control
